# Measurements published in patent EP4653008A1, “TRADITIONAL CHINESE MEDICINE COMPOSITION HAVING EFFICACY IN TREATING COLDS AND USE THEREOF” (Shijiazhuang Yiling Pharmaceutical Co., Ltd., priority 2023, dated 2024).
# Assays:
# Vero = assay: in vitro cytotoxicity (CCK-8); assay type: cell-based, African green monkey; details: Chlorocebus sabaeus; Vero cells; 72 h; n=3
# LLC-MK2 = assay: in vitro cytotoxicity (CCK-8); assay type: cell-based, monkey; details: Primates; LLC-MK2 cells; 72 h; n=3
# [1] = system: respiratory syncytial virus (RSV); assay: in vitro antiviral assay (CPE, CCK-8); assay type: cell-based; details: human respiratory syncytial virus, HEp-2 host cells, 100 TCID50, n=4
# H1HeLa = assay: cells; assay type: cell-based; details: Homo sapiens, H1-HeLa, 72 h, n=3
# Coxsackievirus B3 (CVB3) = assay: in vitro antiviral assay (CPE, CCK-8); assay type: cell-based; details: Enterovirus B, LLC-MK2
# rhinovirus (Rhv) = assay: in vitro antiviral assay (CPE, CCK-8); assay type: cell-based; details: Enterovirus, H1-HeLa
# rotavirus (RV) = assay: in vitro antiviral assay (CPE, CCK-8); assay type: cell-based; details: Vero
# HEp-2 = assay: in vitro cytotoxicity (CCK-8); assay type: cell-based; details: Homo sapiens; HEp-2 cells; 72 h; n=3
# enterovirus (EV71) = assay: in vitro antiviral assay (CPE, CCK-8); assay type: cell-based; details: LLC-MK2 host cells, 100 TCID50, n=4
# Procedure: • (1) Test Grouping: Concentrations were set up based on the comprehensive results of cytotoxicity assays and OD450nm, values, and literature reports on the antiviral effects of positive control drugs. The concentration without significant toxic effects on cells under microscopic observation was selected as the starting concentration for the in vitro antiviral test. […] All of them were diluted into 5 concentrations, with 4 replicate wells set up for each concentration. A virus titer of 100 TCID50 was used to infect the cells. The grouping was as follows: virus + drug group, in which the drug group included the test substance group and the positive control drug group; the virus control group (with virus and no drug), and the cell control group (with virus maintenance solution only). See Table 3 below for detail. • (2) Cell Plating: Cells were prepared into a single cell suspension (1×10^4 cells/mL), seeded into a 96-well cell culture plate at 100 µL per well, and incubated overnight in a 37°C, 5% CO2 incubator. • (3) Addition of Drug and Observation: The medium was discarded, and the cells were washed twice with 1×PBS. […] The OD450nm value of the cells was read using a microplate reader. The inhibition rates of virus by different concentrations of the test substance and their median effective concentration (EC50) against virus were calculated as follows. […]
# [2] = system: parainfluenza virus (PIV); assay: in vitro antiviral assay (CPE, CCK-8); assay type: cell-based; details: LLC-MK2 host cells, 100 TCID50, n=4
# ICR mice = assay: writhing in mice caused by acetic acid; assay type: in vivo; details: 5.00 mg/kg
# Procedure: Referring to the previous studies in our laboratory and relevant literatures, the dose of indomethacin drug administered to mice was set at 5.00 mg/kg, as shown in Table 23.
# A disposable syringe was used to administer the drug at a dosing volume of 10 ml/kg. Animals in the model group were administered with a corresponding volume of the solvent. The administration was carried out for 5 days.
# After receiving new experimental animals, they were numbered, subjected to an adaptive feeding for 5 days and grouped as described above. All animals were fasted for more than 12 h before the last administration, and 1 h after the last administration, 0.7% acetic acid was injected into the abdominal cavity of mice at a dose of 10ml/kg to stimulate the visceral and parietal peritoneum, leading to a deep, widespread, and long-time pain. […] The latency period to the onset of writhing and the number of writhing incidents within 15 min were recorded as quantitative indicators of pain.
# SD rats = assay: fever in rats induced by intraperitoneal injection of LPS; assay type: in vivo; details: 3h after LPS, 26.64 mg/kg
compound,measurement,setting,value
NC(=O)c1ncn([C@@H]2O[C@H](CO)[C@@H](O)[C@H]2O)n1 [Ribavirin],IC50,Vero,> 1000 µg/mL
same,IC50,LLC-MK2,> 1000 µg/mL
same,EC50,[1],> 10 µg/mL
same,IC50,H1HeLa,> 1000 µg/mL
same,EC50,Coxsackievirus B3 (CVB3),102 µg/mL
same,EC50,rhinovirus (Rhv),> 30 µg/mL
same,EC50,rotavirus (RV),20.6 µg/mL
same,IC50,HEp-2,> 1000 µg/mL
same,EC50,enterovirus (EV71),6.03 µg/mL
same,EC50,[2],20.9 µg/mL
"COc1ccc2c(c1)c(CC(=O)O)c(C)n2C(=O)c1ccc(Cl)cc1 [Indomethacin, indomethacin]",Latency period,ICR mice; onset of writhing,736.83 ± 258.16 s
same,Number of writhing incident,ICR mice; within 15 min,2.17±4.53
CC(C)Cc1ccc(C(C)C(=O)O)cc1 (stereo not shown) [Ibuprofen],ΔT (ΔT =Tx-T0) °C,SD rats,0.28 ± 0.48 °C
